Test [1] deals with E. coli ATCC 25922. Put plainly: Viable count analysis in mouse plasma. Type of test: cell-based, Escherichia coli. The following applies: E. coli ATCC 25922, viable count, mouse plasma (Figure S2). The procedure: E. coli were grown to mid-exponential phase in Todd-Hewitt (TH). Bacteria were washed and diluted in 10 mM Tris, pH 7.4 either alone or with 20 % human or mouse (BALB/c) citrate-plasma. Bacterial (2 × 10^6 cfu/ml) were incubated in 50 μl, at 37 °C for 1 h with the C-terminal TFPI-2 derived peptides at the indicated concentrations. Serial dilutions of the incubation mixture were plated on TH agar, followed by incubation at 37 °C overnight and cfu determination. Additional file 1: Figure S1. Phylogenetic tree analysis of full-length and reminder protein except C-terminal TFPI-2 from vertebrates. Phylogenetic tree from 72 vertebrate TFPI-2 species was constructed using Neighbour-Joining tree with 1000 bootstrap replications on MEGA6. (PDF 54 kb) Additional file 2: Figure S2. Activities of TFPI-2 C-terminal derived peptides in mouse plasma. (Left) The bactericidal activity of mouse VKG24 peptide was assessed in physiological buffer conditions using viable count analysis. E. coli ATCC 25922 were grown to mid-logarithmic phase and incubated with varying concentrations of peptide. The antimicrobial activity was determined by plating serial dilutions of bacteria on TH agar plates and number of cfu was counted after overnight incubation. (Right) The activated partial thromboplastin time (aPTT) was determined by addition of buffer or 50 μM of VKG24 peptide to mouse plasma. […]

For test [2], the system named is intrinsic pathway of coagulation. Put plainly: Activated partial thromboplastin time (aPTT) in mouse plasma. Type of test: biochemical. The following applies: peptide 50 μM, n = 3 (Figure S2). On the procedure:
All clotting times were analyzed using a coagulometer (Amelung, Lemgo, Germany). For determination of activated partial thromboplastin time (aPTT), 100 μl of a kaolin-containing solution (Technoclone) was added to the 100 μl of fresh citrate plasma or citrate plasma peptide mix and incubated at 37 °C for 200 s before clot formation was initiated by adding 100 μl of 30 mM fresh CaCl2 solution. For detection of prothrombin time (PT, thromboplastin reagent (Trinity Biotech)) 100 μl of fresh citrate plasma were incubated 60 s at 37 °C before clot formation was initiated by adding 100 μl of clotting reagent. Additional file 1: Figure S1. Phylogenetic tree analysis of full-length and reminder protein except C-terminal TFPI-2 from vertebrates. Phylogenetic tree from 72 vertebrate TFPI-2 species was constructed using Neighbour-Joining tree with 1000 bootstrap replications on MEGA6. (PDF 54 kb) Additional file 2: Figure S2. […] (Left) The bactericidal activity of mouse VKG24 peptide was assessed in physiological buffer conditions using viable count analysis. […] The antimicrobial activity was determined by plating serial dilutions of bacteria on TH agar plates and number of cfu was counted after overnight incubation. (Right) The activated partial thromboplastin time (aPTT) was determined by addition of buffer or 50 μM of VKG24 peptide to mouse plasma. […]

The test system of test [3] is E. coli LPS-induced septic shock in Balb/c mice. In words: LPS-induced septic shock mouse model (survival, weight). The following applies: 10 mg/kg E. coli LPS i.p. Type of test: in vivo. The procedure: (§1) Fig. 6 Treatment of LPS-induced septic shock mice with a mouse TFPI-2 derived peptide. Septic shock in Balb/c mice was induced by i.p. injection of 10 mg/kg E. coli LPS. […] Statistical comparisons of survival curves were performed using the Mantel-Cox’s test. ***P ≤ 0.0003. b Weight was determined daily. c Clotting times of aPTT and PT was measured in citrate plasma 24 h after LPS injection (n = 8). d The indicated cytokines were analyzed in plasma 24 h after LPS injection (n = 8). Statistical analysis for C-D, one-way ANOVA with Tukey’s multiple comparisons post-test was used. **P ≤ 0.003, ****P ≤ 0.0001
(§2) Male/female balb/c mice (8 weeks, 21 ± 5 g) were injected intraperitoneally (i.p.) with 10 mg E. coli 0111:B4 LPS (Sigma) per kg of body weight. Thirty minutes after LPS injection, 0.5 mg VKG24 (25 mg/kg) or PBS buffer alone (control) were injected i.p. into the mice. Status and weight were monitored daily for seven days. Mice where immobilization and/or shaking was observed were euthanized by an overdose of isoflurane (Abbott) and counted as non-survivors. For determination of cytokine levels in mouse plasma, animals were sacrificed 24 h after LPS injection. The blood was collected immediately by cardiac puncture into citrate tubes.

Test [4] deals with intrinsic and extrinsic coagulation pathways. Put plainly: Clotting times (aPTT, PT) in citrate plasma of LPS-injected mice. It counts as in vivo, mouse. The following applies: peptide ~25 mg/kg i.p. On the procedure: Fig. 6 Treatment of LPS-induced septic shock mice with a mouse TFPI-2 derived peptide. […] Statistical analysis for C-D, one-way ANOVA with Tukey’s multiple comparisons post-test was used. **P ≤ 0.003, ****P ≤ 0.0001
as §2
All clotting times were analyzed using a coagulometer (Amelung, Lemgo, Germany). For determination of activated partial thromboplastin time (aPTT), 100 μl of a kaolin-containing solution (Technoclone) was added to the 100 μl of fresh citrate plasma or citrate plasma peptide mix and incubated at 37 °C for 200 s before clot formation was initiated by adding 100 μl of 30 mM fresh CaCl2 solution. For detection of prothrombin time (PT, thromboplastin reagent (Trinity Biotech)) 100 μl of fresh citrate plasma were incubated 60 s at 37 °C before clot formation was initiated by adding 100 μl of clotting reagent.

Test [5] has as its system IL-6, MCP-1, IFN-γ, IL-10. Put plainly: Cytokine assay in plasma of LPS-injected mice. The following applies: 24 h after LPS injection, peptide ~25 mg/kg i.p., n = 8. Type of test: in vivo, mouse. The procedure: as §1, §2
Cytokines IL-6, IL-10, MCP-1, INF-γ and TNF-α were measured in plasma from mice infected by E. coli LPS (with or without peptide treatment) using the Cytometric bead array; mouse inflammation kit (Becton Dickinson AB) according to the manufacturer’s instructions. All plasma samples were stored at −80 °C before the analysis.

[6] abbreviates: citrate plasma 24 h after LPS injection, n = 8.

The values below come from publication PMC4924314, “Vertebrate TFPI-2 C-terminal peptides exert therapeutic applications against Gram-negative infections” (BMC Microbiology, 2016).

In the case of “VKGWKKPKRWKIGDFLPRFWKHLS [VKG24, mouse TFPI-2 C-terminal derived peptide (O35536)]”, the “antimicrobial activity in mouse plasma” value in test [1] is listed as “potent”. The “anti-coagulant activity in mouse plasma (aPTT)” value in test [2] is on record as “potent”. Besides, the survival rate entry in test [3] (peptide 0.5 mg/mouse (~25 mg/kg) i.p. 30 min after LPS, monitored 7 days) is on record as “dramatic improvement”. Further, in test [3] (peptide ~25 mg/kg i.p. 30 min after LPS, weight determined daily), the body weight result is listed as “started regaining their weight from day three”. Moreover, in test [4] (setting [6]), the “coagulation PT time” value is “significantly decreased” and the “coagulation aPTT time” value was “significantly decreased”. Further, the “coagulation aPTT and PT levels in survivors” value in test [4] (survivors) was “completely normalized”. In addition, in test [5], the IFN-γ in plasma entry is listed as “significant reduction”, the IL-6 in plasma result is reported as “significant reduction”, the IL-10 in plasma entry is listed as “significant reduction” and the MCP-1 in plasma entry is recorded as “significant reduction”.
